# In ChEMBL document CHEMBL1201862, “PubChem BioAssay data set” (2004):
#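 Interpolation was linear, between the two tested concentrations surrounding the appropriate level; five concentrations were tested over 48 hours in 96-well plates. Here, GI50 denotes the concentration required for 50% inhibition of growth.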 Calls of active or inactive are those of the source. No stated cut-off is given here; in the data, active = GI50 up to about 1.1 µM and inactive = higher.
# How the values were obtained:
# Test in all cases: inhibition of tumour cell growth, NCI panel, 48 h
# [1] = system: SK-MEL-2
# [2] = system: SNB-75
# [3] = system: SW-620
# [4] = system: OVCAR-8
# [5] = system: CAKI-1
# [6] = system: SF-295
# [7] = system: SF-268
# [8] = system: TK-10
# [9] = system: HCT-15
# [10] = system: SK-OV-3
# [11] = system: HT-29
# [12] = system: A498
# [13] = system: ACHN
# [14] = system: SF-539
# [15] = system: HCC 2998
# [16] = system: OVCAR-3
# [17] = system: DU-145
# [18] = system: NCI/ADR-RES
# [19] = system: MDA-MB-231
# [20] = system: T47D
# [21] = system: SN12C
# [22] = system: UACC-62
# [23] = system: UO-31
# [24] = system: PC-3
# [25] = system: OVCAR-4
# [26] = system: Malme-3M
# [27] = system: HOP-92
# [28] = system: RPMI-8226
# [29] = system: NCI-H23
# [30] = system: U-251
# [31] = system: MDA-N
# [32] = system: EKVX
# [33] = system: 786-0
# [34] = system: A549
# [35] = system: NCI-H460
# [36] = system: SR
# [37] = system: KM12
# [38] = system: SNB-19
# [39] = system: Hs-578T
# [40] = system: MDA-MB-435
# [41] = system: SK-MEL-5
# [42] = system: SK-MEL-28
# [43] = system: IGROV-1
# [44] = system: NCI-H226
# [45] = system: OVCAR-5
# [46] = system: COLO 205
# [47] = system: M14
# [48] = system: HCT-116
# [49] = system: NCI-H522
# [50] = system: UACC-257
# [51] = system: MOLT-4
# [52] = system: RXF 393
# [53] = system: HOP-62
# [54] = system: LOX IMVI
# [55] = system: HL-60
# [56] = system: K562
# [57] = system: MCF7
# [58] = system: CCRF-CEM
smiles,measurement,setting,value
N=C(N)NCCN1CC2CCC(CC2)C1,GI50,[1],> 100 µM (inactive)
same,GI50,[2],19.7 µM (inactive)
same,GI50,[3],> 100 µM (inactive)
same,GI50,[4],> 100 µM (inactive)
same,GI50,[5],> 100 µM (inactive)
same,GI50,[6],> 100 µM (inactive)
same,GI50,[7],> 100 µM (inactive)
same,GI50,[8],> 100 µM (inactive)
same,GI50,[9],> 100 µM
same,GI50,[10],> 100 µM (inactive)
same,GI50,[11],65.2 µM (inactive)
same,GI50,[12],> 100 µM (inactive)
same,GI50,[13],> 100 µM (inactive)
same,GI50,[14],> 100 µM (inactive)
same,GI50,[15],> 100 µM (inactive)
same,GI50,[16],> 100 µM (inactive)
same,GI50,[17],> 100 µM (inactive)
same,GI50,[18],> 100 µM (inactive)
same,GI50,[19],> 100 µM (inactive)
same,GI50,[20],> 100 µM (inactive)
same,GI50,[21],> 100 µM (inactive)
same,GI50,[22],> 100 µM (inactive)
same,GI50,[23],> 100 µM (inactive)
same,GI50,[24],44.1 µM (inactive)
same,GI50,[25],> 100 µM (inactive)
same,GI50,[26],> 100 µM (inactive)
same,GI50,[27],25.6 µM (inactive)
same,GI50,[28],> 100 µM (inactive)
same,GI50,[29],> 100 µM (inactive)
same,GI50,[30],> 100 µM (inactive)
same,GI50,[31],51.9 µM (inactive)
same,GI50,[32],> 100 µM (inactive)
same,GI50,[33],> 100 µM (inactive)
same,GI50,[34],> 100 µM (inactive)
same,GI50,[35],> 100 µM (inactive)
same,GI50,[36],> 100 µM (inactive)
same,GI50,[37],> 100 µM (inactive)
same,GI50,[38],> 100 µM (inactive)
same,GI50,[39],91.4 µM (inactive)
same,GI50,[40],48.5 µM (inactive)
same,GI50,[41],53.2 µM (inactive)
same,GI50,[42],> 100 µM (inactive)
same,GI50,[43],> 100 µM (inactive)
same,GI50,[44],80.4 µM (inactive)
same,GI50,[45],> 100 µM (inactive)
same,GI50,[46],93.1 µM (inactive)
same,GI50,[47],> 100 µM (inactive)
same,GI50,[48],> 100 µM (inactive)
same,GI50,[49],> 100 µM (inactive)
same,GI50,[50],> 100 µM (inactive)
same,GI50,[51],> 100 µM (inactive)
same,GI50,[52],> 100 µM (inactive)
same,GI50,[53],> 100 µM (inactive)
same,GI50,[54],> 100 µM (inactive)
COC(=O)C1=C2SCc3ccc(cc3)CSC3=C(C(=O)OC)SC(=C(S2)S1)S3,GI50,[1],> 100 µM (inactive)
same,GI50,[2],> 100 µM (inactive)
same,GI50,[3],> 100 µM (inactive)
same,GI50,[55],0.253 µM (active)
same,GI50,[5],> 100 µM (inactive)
same,GI50,[6],91.8 µM (inactive)
same,GI50,[8],> 100 µM (inactive)
same,GI50,[10],> 100 µM (inactive)
same,GI50,[12],> 100 µM (inactive)
same,GI50,[13],> 100 µM (inactive)
same,GI50,[15],> 100 µM (inactive)
same,GI50,[16],> 100 µM (inactive)
same,GI50,[17],> 100 µM (inactive)
same,GI50,[19],> 100 µM (inactive)
same,GI50,[20],> 100 µM (inactive)
same,GI50,[56],43.6 µM (inactive)
same,GI50,[21],> 100 µM (inactive)
same,GI50,[22],> 100 µM (inactive)
same,GI50,[23],> 100 µM (inactive)
same,GI50,[24],> 100 µM (inactive)
same,GI50,[25],64.6 µM (inactive)
same,GI50,[28],33 µM (inactive)
same,GI50,[30],> 100 µM (inactive)
same,GI50,[31],74.6 µM (inactive)
same,GI50,[33],96.6 µM (inactive)
same,GI50,[34],> 100 µM (inactive)
same,GI50,[35],> 100 µM (inactive)
same,GI50,[37],> 100 µM (inactive)
same,GI50,[38],> 100 µM (inactive)
same,GI50,[40],49.4 µM (inactive)
same,GI50,[41],> 100 µM (inactive)
same,GI50,[42],> 100 µM (inactive)
same,GI50,[44],> 100 µM (inactive)
same,GI50,[46],> 100 µM (inactive)
same,GI50,[47],> 100 µM (inactive)
same,GI50,[57],> 100 µM (inactive)
same,GI50,[48],> 100 µM (inactive)
same,GI50,[50],> 100 µM (inactive)
same,GI50,[51],> 100 µM (inactive)
same,GI50,[52],67.3 µM (inactive)
same,GI50,[53],> 100 µM (inactive)
NC1=C(N2CCOCC2)C(=O)NC2=N/C(=C\c3ccccc3)C(=O)N21,GI50,[2],> 100 µM (inactive)
same,GI50,[3],> 100 µM (inactive)
same,GI50,[4],> 100 µM (inactive)
same,GI50,[55],17.9 µM (inactive)
same,GI50,[5],> 100 µM (inactive)
same,GI50,[6],3.87 µM (inactive)
same,GI50,[7],> 100 µM (inactive)
same,GI50,[8],> 100 µM (inactive)
same,GI50,[9],84.3 µM
same,GI50,[58],79.6 µM (inactive)
same,GI50,[10],> 100 µM (inactive)
same,GI50,[11],> 100 µM (inactive)
same,GI50,[12],64.3 µM (inactive)
same,GI50,[13],> 100 µM (inactive)
same,GI50,[14],76.7 µM (inactive)
same,GI50,[15],> 100 µM (inactive)
same,GI50,[17],> 100 µM (inactive)
same,GI50,[18],> 100 µM (inactive)
same,GI50,[19],> 100 µM (inactive)
same,GI50,[20],81.3 µM (inactive)
same,GI50,[56],26.1 µM (inactive)
same,GI50,[21],> 100 µM (inactive)
same,GI50,[23],> 100 µM (inactive)
same,GI50,[25],> 100 µM (inactive)
same,GI50,[26],> 100 µM (inactive)
same,GI50,[27],> 100 µM (inactive)
same,GI50,[28],47.4 µM (inactive)
same,GI50,[29],> 100 µM (inactive)
same,GI50,[30],> 100 µM (inactive)
same,GI50,[31],> 100 µM (inactive)
same,GI50,[32],> 100 µM (inactive)
same,GI50,[33],> 100 µM (inactive)
same,GI50,[34],> 100 µM (inactive)
same,GI50,[35],> 100 µM (inactive)
same,GI50,[36],49.2 µM (inactive)
same,GI50,[37],> 100 µM (inactive)
same,GI50,[38],> 100 µM (inactive)
same,GI50,[39],> 100 µM (inactive)
same,GI50,[40],> 100 µM (inactive)
same,GI50,[41],> 100 µM (inactive)
same,GI50,[42],> 100 µM (inactive)
same,GI50,[43],> 100 µM (inactive)
same,GI50,[44],97.9 µM (inactive)
same,GI50,[45],> 100 µM (inactive)
same,GI50,[46],> 100 µM (inactive)
same,GI50,[47],> 100 µM (inactive)
same,GI50,[57],> 100 µM (inactive)
same,GI50,[48],> 100 µM (inactive)
same,GI50,[49],> 100 µM (inactive)
same,GI50,[50],> 100 µM (inactive)
same,GI50,[51],35.8 µM (inactive)
same,GI50,[52],> 100 µM (inactive)
same,GI50,[54],> 100 µM (inactive)
